In the supplement of paper PMC5303821, “Major sulfonate transporter Soa1 in Saccharomyces cerevisiae and considerable substrate diversity in its fungal family” (Nature Communications, 2017):

What was measured:
Conditions in all cases: sulfur source concentration 200 µM; S. cerevisiae S288C/BY sul1Δ sul2Δ soa1Δ with transporter ortholog inserted at SOA1 locus; sulfur-free B medium, 4% glucose, pH 6.5, sole sulfur source
[1] = test system: Aspergillus nidulans_XP_661733; test: maximal growth rate with compound as sole sulfur source (OD600 per h); higher = better growth / uptake of the sulfur source
[2] = test system: Metarhizium robertsii_XP_007823832; test: as above
[3] = test system: Aspergillus nidulans_XP_661711; test: as above
[4] = test system: Aspergillus nidulans_XP_681611; test: as above
[5] = test system: Saccharomyces eubayanus_SOA2; test: as above
[6] = test system: Saccharomyces uvarum_SOA1; test: as above
[7] = test system: Ogataea parapolymorpha_XP_013936897; test: as above
[8] = test system: Saccharomyces cerevisiae_SOA1; test: as above
[9] = test system: Aspergillus nidulans_XP_660563; test: as above
[10] = test system: Aspergillus nidulans_XP_660670; test: as above
[11] = test system: Aspergillus nidulans (IAM 2006)_astA; test: as above
[12] = test system: Metarhizium robertsii_XP_007822519; test: as above
[13] = test system: soa1 del; test: as above
[14] = test system: Fusarium oxysporum_ENH65823; test: as above
[15] = test system: Aspergillus nidulans_XP_661733; test: maximal culture density with compound as sole sulfur source (OD600); higher = better growth
[16] = test system: Metarhizium robertsii_XP_007823832; test: as above
[17] = test system: Aspergillus nidulans_XP_661711; test: as above
[18] = test system: Aspergillus nidulans_XP_681611; test: as above
[19] = test system: Saccharomyces eubayanus_SOA2; test: as above
[20] = test system: Saccharomyces uvarum_SOA1; test: as above
[21] = test system: Ogataea parapolymorpha_XP_013936897; test: as above
[22] = test system: Saccharomyces cerevisiae_SOA1; test: as above
[23] = test system: Aspergillus nidulans_CBF80346; test: as above
[24] = test system: Aspergillus nidulans_CBF74694; test: as above
[25] = test system: Aspergillus nidulans_XP_660563; test: as above
[26] = test system: Aspergillus nidulans_XP_660670; test: as above
[27] = test system: Saccharomyces eubayanus_SOA1; test: as above
[28] = test system: Aspergillus nidulans (IAM 2006)_astA; test: as above
[29] = test system: Metarhizium robertsii_XP_007822519; test: as above
[30] = test system: Ogataea parapolymorpha_XP_013935289; test: as above
[31] = test system: Saccharomyces uvarum_SOA2; test: as above
[32] = test system: Ogataea parapolymorpha_XP_013932458; test: as above
[33] = test system: Metarhizium robertsii_XP_007821441; test: as above
[34] = test system: soa1 del; test: as above
[35] = test system: Fusarium oxysporum_ENH65823; test: as above

SMILES	maximal growth rate [1]	maximal growth rate [2]	maximal growth rate [3]	maximal growth rate [4]	maximal growth rate [5]	maximal growth rate [6]	maximal growth rate [7]	maximal growth rate [8]	maximal growth rate [9]	maximal growth rate [10]	maximal growth rate [11]	maximal growth rate [12]	maximal growth rate [13]	maximal growth rate [14]	maximal culture density [15]	maximal culture density [16]	maximal culture density [17]	maximal culture density [18]	maximal culture density [19]	maximal culture density [20]	maximal culture density [21]	maximal culture density [22]	maximal culture density [23]	maximal culture density [24]	maximal culture density [25]	maximal culture density [26]	maximal culture density [27]	maximal culture density [28]	maximal culture density [29]	maximal culture density [30]	maximal culture density [31]	maximal culture density [32]	maximal culture density [33]	maximal culture density [34]	maximal culture density [35]
O=S(=O)(O)CO [Hydroxymethane sulfonate]	0.00489	0.038	0.00357	0.00603	0.0594	0.109	0.00499	0.121	0.00603	0.00358	0.0343	0.0756	0.00406	0.00319	0.267	1.5	0.207	0.322	1.66	1.6	0.303	1.61	0.208	0.203	0.318	0.207	1.59	1.6	1.59	1.62	1.73	0.234	1.04	0.212	0.195
CCCCS(=O)(=O)O [Butanesulfonate]	0.00595	0.0152	0.00392	0.00666	0.0837	0.0795	0.0049	0.0882	0.00657	0.00393	0.0185	0.00366	0.00398	0.00349	0.279	0.604	0.267	0.368	1.69	1.59	0.323	1.58	0.26	0.2	0.355	0.267	1.57	0.596	0.261	1.6	1.71	0.274	0.246	0.247	0.241
CCS(=O)(=O)O [Ethanesulfonate]	0.00379	0.0141	0.00368	0.00641	0.0754	0.0735	0.00513	0.076	0.00579	0.0037	0.0175	0.0594	0.00466	0.00347	0.238	0.494	0.209	0.319	1.75	1.59	0.296	1.58	0.22	0.182	0.314	0.209	1.58	0.477	1.6	1.58	1.76	0.237	0.214	0.215	0.197
CSCC[C@H](N)C(=O)O [Methionine]	0.136	0.138	0.139	0.142	0.127	0.131	0.123	0.145	0.13	0.139	0.143	0.139	0.141	0.144	1.59	1.58	1.6	1.64	1.63	1.57	1.57	1.61	1.58	1.57	1.6	1.6	1.55	1.59	1.59	1.55	1.68	1.56	1.59	1.69	1.59
